Measurements reported in ChEMBL document CHEMBL2046372, “Design and synthesis of pyrrolo[3,2-d]pyrimidine human epidermal growth factor receptor 2 (HER2)/epidermal growth factor receptor (EGFR) dual inhibitors: exploration of novel back-pocket binders” (J Med Chem, 2012).
The source made the active and inactive calls. The rule behind the calls is not given here.

Experiments:
[1] = molecular target: T1, Receptor tyrosine-protein kinase erbB-2 (Homo sapiens, UniProt P04626); experiment: Pseudo-irreversible inhibition of N-terminus peptide-tagged human recombinant HER2 expressed using baculovirus infection system using [gamma-33P]-ATP preincubated with compound for 5 mins at 10 times IC50 concentration measured after 10 mins by scintillation counting
T1 sequence (P04626 whole entry): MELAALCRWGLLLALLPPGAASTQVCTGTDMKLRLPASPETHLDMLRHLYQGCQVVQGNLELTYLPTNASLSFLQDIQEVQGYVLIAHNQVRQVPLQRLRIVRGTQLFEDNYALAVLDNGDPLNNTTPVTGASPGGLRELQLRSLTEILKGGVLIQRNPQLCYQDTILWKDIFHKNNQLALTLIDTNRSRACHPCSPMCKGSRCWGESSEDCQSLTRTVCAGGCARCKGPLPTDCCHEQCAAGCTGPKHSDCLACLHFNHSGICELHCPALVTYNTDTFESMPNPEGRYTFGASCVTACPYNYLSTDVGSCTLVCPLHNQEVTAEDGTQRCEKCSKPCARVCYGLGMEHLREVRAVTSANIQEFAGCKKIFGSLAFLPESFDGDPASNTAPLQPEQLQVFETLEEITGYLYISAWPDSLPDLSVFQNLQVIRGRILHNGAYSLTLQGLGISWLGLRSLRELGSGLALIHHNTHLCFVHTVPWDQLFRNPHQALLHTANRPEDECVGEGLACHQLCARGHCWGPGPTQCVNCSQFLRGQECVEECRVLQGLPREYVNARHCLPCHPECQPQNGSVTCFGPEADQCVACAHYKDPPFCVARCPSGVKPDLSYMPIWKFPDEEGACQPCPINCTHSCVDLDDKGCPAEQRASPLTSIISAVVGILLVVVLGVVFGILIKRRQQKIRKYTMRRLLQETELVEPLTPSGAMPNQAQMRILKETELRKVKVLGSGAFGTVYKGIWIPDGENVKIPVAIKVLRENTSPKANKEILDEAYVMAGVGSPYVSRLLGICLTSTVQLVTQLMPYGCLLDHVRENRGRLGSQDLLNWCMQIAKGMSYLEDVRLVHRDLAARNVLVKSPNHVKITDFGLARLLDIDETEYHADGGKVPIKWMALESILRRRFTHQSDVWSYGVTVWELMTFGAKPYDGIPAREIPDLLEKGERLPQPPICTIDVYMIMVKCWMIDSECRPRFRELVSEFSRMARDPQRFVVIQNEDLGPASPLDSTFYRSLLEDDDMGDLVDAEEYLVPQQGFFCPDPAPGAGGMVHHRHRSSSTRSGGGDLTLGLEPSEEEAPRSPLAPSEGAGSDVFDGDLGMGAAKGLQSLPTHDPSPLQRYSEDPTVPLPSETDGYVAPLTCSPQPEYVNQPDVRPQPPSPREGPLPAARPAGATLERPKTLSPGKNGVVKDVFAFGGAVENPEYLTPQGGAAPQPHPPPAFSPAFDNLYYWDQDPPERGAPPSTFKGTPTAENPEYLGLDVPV

[2] = molecular target: T1, Receptor tyrosine-protein kinase erbB-2; experiment: Inhibition of N-terminus peptide-tagged human recombinant HER2 expressed using baculovirus infection system using [gamma-33P]-ATP preincubated with compound for 5 mins measured after 10 mins by scintillation counting
BT-474 = experiment: Growth inhibition of human BT474 cells overexpressing HER2 gene after 5 days; type: functional; details: BT-474, 120 h
[3] = molecular target: Epidermal growth factor receptor (Homo sapiens, UniProt P00533); experiment: Inhibition of N-terminus peptide-tagged human recombinant EGFR expressed using baculovirus infection system using [gamma-33P]-ATP preincubated with compound for 5 mins measured after 10 mins by scintillation counting
Chain of Epidermal growth factor receptor (P00533 whole entry): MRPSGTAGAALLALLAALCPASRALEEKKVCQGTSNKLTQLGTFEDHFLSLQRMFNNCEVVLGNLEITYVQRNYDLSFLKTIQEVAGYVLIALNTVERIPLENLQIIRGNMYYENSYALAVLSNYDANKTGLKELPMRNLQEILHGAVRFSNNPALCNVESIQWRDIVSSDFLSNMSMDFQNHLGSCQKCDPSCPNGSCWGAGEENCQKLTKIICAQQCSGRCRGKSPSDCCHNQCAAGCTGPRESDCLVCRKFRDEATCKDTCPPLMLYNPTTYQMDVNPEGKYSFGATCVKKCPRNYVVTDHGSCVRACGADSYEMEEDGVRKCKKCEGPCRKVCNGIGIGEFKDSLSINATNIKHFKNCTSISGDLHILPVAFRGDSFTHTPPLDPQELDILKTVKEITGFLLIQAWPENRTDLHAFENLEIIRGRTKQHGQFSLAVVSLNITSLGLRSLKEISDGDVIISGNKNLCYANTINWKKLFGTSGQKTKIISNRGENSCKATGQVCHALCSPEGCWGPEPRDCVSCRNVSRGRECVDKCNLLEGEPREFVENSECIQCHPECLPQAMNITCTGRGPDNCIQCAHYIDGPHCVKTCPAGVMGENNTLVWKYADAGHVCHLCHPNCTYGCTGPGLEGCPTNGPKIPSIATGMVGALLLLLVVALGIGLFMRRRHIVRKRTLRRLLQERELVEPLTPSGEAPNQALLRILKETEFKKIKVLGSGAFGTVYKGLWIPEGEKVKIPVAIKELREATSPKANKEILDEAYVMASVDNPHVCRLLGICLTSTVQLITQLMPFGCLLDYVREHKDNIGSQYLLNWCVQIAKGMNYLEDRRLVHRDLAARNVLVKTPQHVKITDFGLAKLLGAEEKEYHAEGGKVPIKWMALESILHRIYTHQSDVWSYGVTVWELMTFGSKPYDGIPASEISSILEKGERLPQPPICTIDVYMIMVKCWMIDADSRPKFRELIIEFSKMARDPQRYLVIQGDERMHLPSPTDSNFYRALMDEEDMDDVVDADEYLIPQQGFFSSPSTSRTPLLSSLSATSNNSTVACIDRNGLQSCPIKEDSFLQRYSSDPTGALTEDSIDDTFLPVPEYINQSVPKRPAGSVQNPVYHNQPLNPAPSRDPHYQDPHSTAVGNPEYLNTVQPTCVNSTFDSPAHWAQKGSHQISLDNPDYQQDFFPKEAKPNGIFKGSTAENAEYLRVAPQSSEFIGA

[4] = Metabolic stability in mouse liver microsomes at 1 umol/L after 20 mins by HPLC analysis; type: ADME, Microsome; details: read-out: Stability
[5] = Metabolic stability in human liver microsomes at 1 umol/L after 20 mins by HPLC analysis; type: ADME, Microsome; details: read-out: Stability
CYP3A4 = CYP3A4 (Homo sapiens, UniProt P08684); experiment: Inhibition of CYP3A4 at 10 uM after 15 mins; type: ADME
Chain of CYP3A4 (P08684 whole entry): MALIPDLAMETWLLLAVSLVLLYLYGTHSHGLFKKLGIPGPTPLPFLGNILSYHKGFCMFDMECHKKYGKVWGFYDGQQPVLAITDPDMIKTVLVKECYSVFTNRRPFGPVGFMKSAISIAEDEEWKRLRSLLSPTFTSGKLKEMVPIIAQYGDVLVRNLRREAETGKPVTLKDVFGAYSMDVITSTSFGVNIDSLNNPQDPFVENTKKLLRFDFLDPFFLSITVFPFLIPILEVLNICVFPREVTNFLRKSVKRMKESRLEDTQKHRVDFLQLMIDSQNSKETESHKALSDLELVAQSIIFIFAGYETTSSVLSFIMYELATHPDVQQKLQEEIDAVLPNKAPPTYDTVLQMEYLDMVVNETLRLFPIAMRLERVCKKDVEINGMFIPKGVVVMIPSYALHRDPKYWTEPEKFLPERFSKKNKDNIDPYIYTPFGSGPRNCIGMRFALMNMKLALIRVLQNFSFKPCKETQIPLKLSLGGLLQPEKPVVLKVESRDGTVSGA

Row | Compound | inhibition [1] | IC50 [2] [nM] | GI50 (BT-474) [nM] | IC50 [3] [nM] | microsomal CLint at 1 µM [4] [µL/min/mg] | microsomal CLint at 1 µM [5] [µL/min/mg] | inhibition at 0.25 h, 10 µM (CYP3A4) [%]
1 | O=C1Cc2ccc(Oc3ccc(Nc4ncnc5ccn(CCO)c45)cc3Cl)cc2N1 | inactive | 130 | 1880 | 2300 |  |  | 
2 | O=C1NCc2ccc(Oc3ccc(Nc4ncnc5ccn(CCO)c45)cc3Cl)cc21 | Active | 1.3 | 43 | 7.8 |  |  | 
3 | OCCn1ccc2ncnc(Nc3ccc(Oc4cccc5[nH]ncc45)c(Cl)c3)c21 | Active | 1.7 | 5.5 | 1.9 | 123 | 114 | 
4 | O=C1Cc2c(cccc2Oc2ccc(Nc3ncnc4ccn(CCO)c34)cc2Cl)N1 | Active | 1.6 | 13 | 3 | 66 | 141 | 
5 | CC(C)(C)NC(=O)c1cccc(Oc2ccc(Nc3ncnc4ccn(CCO)c34)cc2Cl)c1 |  | 2.3 | 88 | 33 |  |  | 
6 | OCCn1ccc2ncnc(Nc3ccc(Oc4cccc5sncc45)c(Cl)c3)c21 | Active | 2.1 | 3.6 | 4.1 | 142 | 129 | 47.2
7 | O=C1Cc2cccc(Oc3ccc(Nc4ncnc5ccn(CCO)c45)cc3Cl)c2N1 | Active | 1.5 | 73 |  |  |  | 
8 | Cn1ncc2c(Oc3ccc(Nc4ncnc5ccn(CCO)c45)cc3Cl)cccc21 | inactive | 2.1 | 164 | 36 | 106 | 219 | 
9 | O=C1Cc2cc(Oc3ccc(Nc4ncnc5ccn(CCO)c45)cc3Cl)ccc2N1 | inactive | 28 | 1350 | 960 |  |  | 
10 | O=C(NCCn1ccc2ncnc(Nc3ccc(Oc4cccc5sncc45)c(Cl)c3)c21)[C@@H]1CCCN1 |  | 0.92 | 5.8 | 3 | 74 | 61 | 35
11 | O=C1NCc2cccc(Oc3ccc(Nc4ncnc5ccn(CCO)c45)cc3Cl)c21 | inactive | 2.5 | 768 | 21 |  |  | 
12 | O=C1NCc2c(Oc3ccc(Nc4ncnc5ccn(CCO)c45)cc3Cl)cccc21 | inactive | 150 | 3360 | 890 |  |  | 
13 | OCCn1ccc2ncnc(Nc3ccc(Oc4cccc(C(F)(F)F)c4)c(Cl)c3)c21 |  |  |  | 34 |  |  | 
14 | CC(C)(CO)C(=O)NCCn1ccc2ncnc(Nc3ccc(Oc4cccc5sncc45)c(Cl)c3)c21 |  | 3.3 | 8.6 | 7 | 88 | 113 | 
15 | OCCn1ccc2ncnc(Nc3ccc(Oc4cccc5[nH]ccc45)c(Cl)c3)c21 | Active | 2.5 | 36 | 3.1 |  | 204 | 
16 | CC(C)(C)C(=O)NCCn1ccc2ncnc(Nc3ccc(Oc4cccc5sncc45)c(Cl)c3)c21 |  | 6.1 | 9.2 | 21 | 108 | 94 | 33.5
17 | OCCn1ccc2ncnc(Nc3ccc(Oc4cccc5sccc45)c(Cl)c3)c21 | Active | 6 | 15 | 8.8 | 24 | 144 | 
18 | CC(C)(C(=O)NCCn1ccc2ncnc(Nc3ccc(Oc4cccc5sncc45)c(Cl)c3)c21)S(C)(=O)=O |  | 2 | 8 | 5.5 | 76 | 113 | 49.9
19 | CC(C)(O)C(=O)NCCn1ccc2ncnc(Nc3ccc(Oc4cccc5sncc45)c(Cl)c3)c21 |  | 2.2 | 9.4 | 7 | 145 | 117 | 62.6
20 | O=C1NCc2cc(Oc3ccc(Nc4ncnc5ccn(CCO)c45)cc3Cl)ccc21 | inactive | 18 | 4080 | 510 |  |  | 
21 | CC(=O)NCCn1ccc2ncnc(Nc3ccc(Oc4cccc5sncc45)c(Cl)c3)c21 |  | 1.6 | 4 | 2.9 | 100 | 133 | 57
